Measurements from paper doi:10.1101/2021.05.17.444542v1, “Structure Activity Relationship of USP5 Allosteric Inhibitors” (biorxiv, 2021).

target: T1, USP5 ZnF-UBD (USP5 171-290) (Homo sapiens, UniProt P45974); conditions: FITC-ubiquitin displacement, N=1; 100 µM; inhibitor
T1 sequence (P45974 171-290): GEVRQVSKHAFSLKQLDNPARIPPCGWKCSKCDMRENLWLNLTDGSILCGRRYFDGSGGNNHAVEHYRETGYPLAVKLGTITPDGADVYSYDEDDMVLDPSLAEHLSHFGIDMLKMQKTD

Row | Compound | % inhibition [%]
1 | O=C(O)CCC(=O)c1cccc(NS(=O)(=O)c2c[nH]c(C(=O)N3CCCC3)c2)c1 [S5] | 50
2 | Cc1ccc(C(=O)O)cc1S(=O)(=O)Nc1cccc(C(=O)CCC(=O)O)c1 [S2] | 36
3 | Cc1ccc(OC(C)CNS(=O)(=O)c2ccc(C(=O)CCC(=O)O)cc2)cc1 (stereo not drawn) [S8] | 37
4 | CN(c1ccc(S(C)(=O)=O)cc1)S(=O)(=O)c1ccc(C(=O)CCC(=O)O)cc1 [S4] | 61
5 | O=C(O)CCC(=O)c1cccc(NS(=O)(=O)c2c[nH]c3ncccc23)c1 [S1] | 40
6 | O=C(O)CCC(=O)c1cccc(NS(=O)(=O)c2cc(F)cc(C(=O)O)c2)c1 [S6] | 3
7 | O=C(O)CCC(=O)c1cccc(NS(=O)(=O)c2ccc(Cl)c(C(=O)O)c2)c1 [S9] | 26
8 | CCCn1nc(C)c(-c2ccc(OC)c(C(=O)CCC(=O)O)c2)c1C [S7] | 32
9 | CC(CC(=O)c1cccc(-c2ccc3c(c2)CCCO3)c1)C(=O)O (stereo not drawn) [S3] | 31
